biological target: TNFα (Homo sapiens, UniProt P01375); test: TNF induced HEK-Blue assay (NF-kB-driven secreted alkaline phosphatase reporter); format: cell-based; conditions: TNF induced HEK-Blue assay IC50 value, TNFα 0.5 ng/mL, HEK-Blue-CD40L cells, 18 h
Method in brief: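 HEK-Blue-CD40L cells (NF-kB-driven SEAP reporter), 20,000/well, added after 30 min pre-incubation of compound (0.004–25 μM final) with TNFα 0.5 ng/mL final at 37 °C; 18 h incubation. SEAP read with QUANTI-Blue at 620 nm; IC50 from 4-parameter logistic fit, normalized to unstimulated and stimulated DMSO controls.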

Chain of TNFα (P01375 77-233 limits assumed): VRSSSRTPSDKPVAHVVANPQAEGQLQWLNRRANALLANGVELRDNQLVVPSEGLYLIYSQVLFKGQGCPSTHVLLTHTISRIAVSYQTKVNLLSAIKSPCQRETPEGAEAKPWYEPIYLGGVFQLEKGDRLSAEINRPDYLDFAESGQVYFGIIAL

Row | IC50 | Structure (SMILES)
1 | < 1 µM | C[C@@H](Nc1c(Cl)cnc2ccc(-c3cnc(C(C)(C)O)nc3)cc12)c1cc(N2CCCC2)ccc1F [Example 364, (R)-2-(5-(3-chloro-4-((1-(2-fluoro-5-(pyrrolidin-1-yl)phenyl)ethyl)amino)quinolin-6-yl)pyrimidin-2-yl)propan-2-ol]

same assay, conditions: TNFα 0.5 ng/mL, HEK-Blue-CD40L cells, 18 h; read-out: TNF induced HEK-Blue assay IC50 value

Row | IC50 | Structure (SMILES)
2 | < 1 µM | C[C@@H](Nc1c(Cl)cnc2ccc(-c3cnc(C(C)(C)O)nc3)cc12)c1cc(-c2cnn(C)c2)ccc1F [Example 339, (R)-2-(5-(3-chloro-4-((1-(2-fluoro-5-(1-methyl-1H-pyrazol-4-yl)phenyl)ethyl)amino)quinolin-6-yl)pyrimidin-2-yl)propan-2-ol]
3 | < 1 µM | C[C@@H](Nc1c(Cl)cnc2ccc(-c3cnc(C(C)(C)O)nc3)cc12)c1cc(-c2cncnc2)ccc1F [Example 340, (R)-2-(5-(3-chloro-4-((1-(2-fluoro-5-(pyrimidin-5-yl)phenyl)ethyl)amino)quinolin-6-yl)pyrimidin-2-yl) propan-2-ol]
4 | < 1 µM | C[C@@H](Nc1c(Cl)cnc2ccc(-c3cnc(C(C)(C)O)nc3)cc12)c1cc(-c2cnccn2)ccc1F [Example 341, (R)-2-(5-(3-chloro-4-((1-(2-fluoro-5-(pyrazin-2-yl)phenyl)ethyl)amino)quinolin-6-yl)pyrimidin-2-yl)propan-2-ol]
5 | < 1 µM | Cc1nc2ccc(-c3cnc(N4CCN(CC(=O)O)CC4)nc3)cc2c(N[C@H](C)c2cc(-c3cn[nH]c3)ccc2F)c1Cl [Example 342, (R)-2-(4-(5-(3-chloro-4-((1-(2-fluoro-5-(1H-pyrazol-4-yl)phenyl)ethyl)amino)-2-methylquinolin-6-yl)pyrimidin-2-yl)piperazin-1-yl)acetic acid]
6 | < 1 µM | Cc1nc2ccc(-c3cnc(C(C)(C)O)nc3)cc2c(N[C@H](C)c2cc(-c3cnc(C(C)(C)O)nc3)ccc2F)c1Cl [Example 343, (R)-2-(5-(3-chloro-4-((1-(2-fluoro-5-(2-(2-hydroxypropan-2-yl)pyrimidin-5-yl)phenyl)ethyl)amino)-2-methylquinolin-6-yl)pyrimidin-2-yl)propan-2-ol]
7 | < 1 µM | Cc1nc2ccc(-c3cnc(C(C)(C)O)nc3)cc2c(N[C@H](C)c2cc(-c3cnn(C)c3)ccc2F)c1Cl [Example 344, (R)-2-(5-(3-chloro-4-((1-(2-fluoro-5-(1-methyl-1H-pyrazol-4-yl)phenyl)ethyl)amino)-2-methylquinolin-6-yl)pyrimidin-2-yl)propan-2-ol]
8 | < 1 µM | C[C@@H](Nc1c(Cl)cnc2ccc(-c3cnc(C(C)(C)O)nc3)cc12)c1cc(-c2ncccn2)ccc1F [Example 345, (R)-2-(5-(3-chloro-4-((1-(2-fluoro-5-(pyrimidin-2-yl)phenyl)ethyl)amino)quinolin-6-yl)pyrimidin-2-yl)propan-2-ol]
9 | 1 to 10 µM | C[C@@H](Nc1c(Cl)cnc2ccc(-c3cnc(C(C)(C)O)nc3)cc12)c1cc(-c2cnn(CC(=O)O)c2)ccc1F [Example 346, (R)-2-(4-(3-(1-((3-chloro-6-(2-(2-hydroxypropan-2-yl)pyrimidin-5-yl)quinolin-4-yl)amino)ethyl)-4-fluorophenyl)-1H-pyrazol-1-yl)acetic acid]
10 | < 1 µM | C[C@@H](Nc1c(Cl)cnc2ccc(-c3cnc(C(C)(C)O)nc3)cc12)c1cc(-c2cncs2)ccc1F [Example 347, (R)-2-(5-(3-chloro-4-((1-(2-fluoro-5-(thiazol-5-yl)phenyl)ethyl)amino)quinolin-6-yl)pyrimidin-2-yl)propan-2-ol]
11 | < 1 µM | C[C@@H](Nc1c(Cl)cnc2ccc(-c3cnc(C(C)(C)O)nc3)cc12)c1cc(-c2ccc(N)nc2)ccc1F [Example 348, (R)-2-(5-(4-((1-(5-(6-aminopyridin-3-yl)-2-fluorophenyl)ethyl)amino)-3-chloroquinolin-6-yl)pyrimidin-2-yl)propan-2-ol]
12 | < 1 µM | C[C@@H](Nc1c(Cl)cnc2ccc(-c3cnc(C(C)(C)O)nc3)cc12)c1cc(-c2cnn(CC(C)(C)O)c2)ccc1F [Example 349, (R)-1-(4-(3-(1-((3-chloro-6-(2-(2-hydroxypropan-2-yl)pyrimidin-5-yl)quinolin-4-yl)amino)ethyl)-4-fluorophenyl)-1H-pyrazol-1-yl)-2-methylpropan-2-ol]
13 | < 1 µM | C[C@@H](Nc1c(Cl)cnc2ccc(-c3cnc(C(C)(C)O)nc3)cc12)c1cc(-c2ccnc(N)c2)ccc1F [Example 350, (R)-2-(5-(4-((1-(5-(2-aminopyridin-4-yl)-2-fluorophenyl)ethyl)amino)-3-chloroquinolin-6-yl)pyrimidin-2-yl)propan-2-ol]
14 | < 1 µM | Cc1ccc(F)c([C@H](Nc2c(Cl)c(C)nc3ccc(-c4cnc(C(C)(C)O)nc4)cc23)C(F)F)c1 [Example 351, (S)-2-(5-(3-chloro-4-((2,2-difluoro-1-(2-fluoro-5-methylphenyl)ethyl)amino)-2-methylquinolin-6-yl)pyrimidin-2-yl)propan-2-ol]
15 | < 1 µM | C=Cc1ccc(F)c([C@H](Nc2c(Cl)c(C)nc3ccc(-c4cnc(C(C)(C)O)nc4)cc23)C(F)F)c1 [Example 352, (S)-2-(5-(3-chloro-4-((2,2-difluoro-1-(2-fluoro-5-vinylphenyl)ethyl)amino)-2-methylquinolin-6-yl)pyrimidin-2-yl)propan-2-ol]
16 | 1 to 10 µM | Cc1nc2ccc(-c3cnc(C(C)(C)O)nc3)cc2c(-c2ccccc2-c2ccccc2)c1Cl [Example 353, 2-(5-(4-([1,1′-biphenyl]-2-yl)-3-chloro-2-methylquinolin-6-yl)pyrimidin-2-yl)propan-2-ol]
17 | < 1 µM | COC(=O)N1CCC[C@H]([C@H](C)Nc2c(Cl)cnc3ccc(-c4cnc(C(C)(C)O)nc4)cc23)C1 [Example 354, (S)-methyl 3-((S)-1-((3-chloro-6-(2-(2-hydroxypropan-2-yl)pyrimidin-5-yl)quinolin-4-yl)amino)ethyl)piperidine-1-carboxylate]
18 | < 1 µM | Cc1nc2ccc(-c3cnc(C(C)(C)O)nc3)cc2c(N[C@H](C)c2cc(NC(=O)OC(C)(C)C)ccc2F)c1Cl [Example 359, tert-Butyl (R)-(3-(1-((3-chloro-6-(2-(2-hydroxypropan-2-yl)pyrimidin-5-yl)-2-methylquinolin-4-yl)amino)ethyl)-4-fluorophenyl)carbamate]
19 | < 1 µM | Cc1nc2ccc(-c3cnc(C(C)(C)O)nc3)cc2c(N[C@H](C)c2cc(N)ccc2F)c1Cl [Example 360, (R)-2-(5-(4-((1-(5-amino-2-fluorophenyl)ethyl)amino)-3-chloro-2-methylquinolin-6-yl)pyrimidin-2-yl)propan-2-ol]
20 | < 1 µM | Cc1nc2ccc(-c3cnc(C(C)(C)O)nc3)cc2c(N[C@H](C)c2cc(N3CCCC3=O)ccc2F)c1Cl [Example 361, (R)-1-(3-(1-((3-chloro-6-(2-(2-hydroxypropan-2-yl)pyrimidin-5-yl)-2-methylquinolin-4-yl)amino)ethyl)-4-fluorophenyl)pyrrolidin-2-one]
21 | < 1 µM | C[C@@H](Nc1c(Cl)cnc2ccc(-c3cnc(C(C)(C)O)nc3)cc12)c1cc(N2CCCC2=O)ccc1F [Example 362, (R)-1-(3-(1-((3-chloro-6-(2-(2-hydroxypropan-2-yl)pyrimidin-5-yl)quinolin-4-yl)amino)ethyl)-4-fluorophenyl)pyrrolidin-2-one]
22 | 1 to 10 µM | C[C@@H](Nc1c(Cl)cnc2ccc(-c3cnc(C(C)(C)O)nc3)cc12)c1cccc(N2CCCC2=O)c1 [Example 363, (R)-1-(3-(1-((3-chloro-6-(2-(2-hydroxypropan-2-yl)pyrimidin-5-yl)quinolin-4-yl)amino)ethyl)phenyl)pyrrolidin-2-one]
23 | < 1 µM | Cc1nc2ccc(-c3cnc(C(C)(C)O)nc3)cc2c(N[C@H](C)c2cc(-n3cccn3)ccc2F)c1Cl [Example 365, (R)-2-(5-(3-chloro-4-((1-(2-fluoro-5-(1H-pyrazol-1-yl)phenyl)ethyl)amino)-2-methylquinolin-6-yl)pyrimidin-2-yl)propan-2-ol]
24 | < 1 µM | C[C@@H](Nc1c(Cl)cnc2ccc(-c3cnc(C(C)(C)O)nc3)cc12)c1cc(-n2cccn2)ccc1F [Example 366, (R)-2-(5-(3-chloro-4-((1-(2-fluoro-5-(1H-pyrazol-1-yl)phenyl)ethyl)amino)quinolin-6-yl)pyrimidin-2-yl)propan-2-ol]
25 | < 1 µM | C[C@@H](Nc1c(Cl)cnc2ccc(-c3cnc(C(C)(C)O)nc3)cc12)c1cc(N2CCOC2=O)ccc1F [Example 367, (R)-3-(3-(1-((3-chloro-6-(2-(2-hydroxypropan-2-yl)pyrimidin-5-yl)quinolin-4-yl)amino)ethyl)-4-fluorophenyl) oxazolidin-2-one]
26 | 10 to 25 µM | C[C@@H](Nc1c(Cl)cnc2ccc(-c3cnc(C(C)(C)O)nc3)cc12)c1cccc(-n2cccn2)c1 [Example 368, (R)-2-(5-(4-((1-(3-(1H-pyrazol-1-yl)phenyl)ethyl)amino)-3-chloroquinolin-6-yl)pyrimidin-2-yl)propan-2-ol]
27 | < 1 µM | C[C@@H](Nc1c(Cl)cnc2ccc(-c3cnc(C(C)(C)O)nc3)cc12)c1cc(N2CCOCC2=O)ccc1F [Example 369, (R)-4-(3-(1-((3-chloro-6-(2-(2-hydroxypropan-2-yl)pyrimidin-5-yl)quinolin-4-yl)amino)ethyl)-4-fluorophenyl) morpholin-3-one]
28 | < 1 µM | C[C@@H](Nc1c(Cl)cnc2ccc(-c3cnc(C(C)(C)O)nc3)cc12)c1cc(N2CCNC2=O)ccc1F [Example 370, (R)-1-(3-(1-((3-chloro-6-(2-(2-hydroxypropan-2-yl)pyrimidin-5-yl)quinolin-4-yl)amino)ethyl)-4-fluorophenyl)imidazolidin-2-one]
29 | < 1 µM | C[C@@H](Nc1c(Cl)cnc2ccc(-c3cnc(C(C)(C)O)nc3)cc12)c1cc(-n2cnnc2)ccc1F [Example 371, (R)-2-(5-(3-chloro-4-((1-(2-fluoro-5-(4H-1,2,4-triazol-4-yl)phenyl)ethyl)amino)quinolin-6-yl)pyrimidin-2-yl)propan-2-ol]

Reference: patent US10865191B2, “Heterocyclic compounds useful as modulators of TNF alpha” (BRISTOL-MYERS SQUIBB COMPANY, priority 2015, dated 2020)
